According to patent US20150231134A1, “Combination Therapy using Belinostat and Trabectedin” (Onxeo DK, Branch of Onxeo S.A., France, priority 2012, published 2015):
Where two headings read alike, the source gives them in different places.

Columns and labels:
[1] = system: Ovarian Cancer Cells (A2780); test: Clonogenic assay (continuous co-incubation), ovarian cancer cells A2780; type: cell-based
Experimental: (§1) The effects of the combination of belinostat and trabectedin were studied in clonogenic assays. The clonogenic assay assesses anti-clonogenic activity of tumour cells. The “target” in clonogenic assay is all biochemical and molecular elements or alterations characteristic of tumour cells rather than specific single targets.
(§2) Cells were grown for at least 1 week after thawing in standard media to obtain a sub-confluent culture. The 3.3% agar was boiled for at least 60 minutes in a water bath on an electrical heating plate (30 mL PBS+990 mg Bacto agar). The 90 mL growth medium (RPMI-1640+10% FCS) was heated in a water bath at 37° C. Cells were centrifuged in 50 mL centrifuge tubes at 1200 rpm for 5 minutes at room temperature.
(§3) Drug (belinostat or trabectedin) was dissolved and diluted with growth medium or DMSO to a concentration of […] the final concentration.
(§4) Cells were suspended in 7 mL growth medium using a 1 mL syringe and an 18 gauge needle by pumping the solution up and down 15 times. Cells were stained with Nigrosin (0.3 mL cells+0.3 mL 0.1% Nigrosin in PBS), and counted after 8 minutes using a Fuchs-Rosenthal counting chamber.
(§5) Then, 10 mL agar and 90 mL growth medium was mixed (0.33%) and heated in a water bath at 37° C. 0.35 mL cell suspension was transferred to 10 mL conical centrifuge tubes using a dispenser. 35 μL drug (belinostat or trabectedin) was added. 3.15 mL agar/medium was added to each tube (maximum 8 tubes at the time).
(§6) For each belinostat combination tested series of 7 titrations corresponding to approximately 30, 40, 50, 60, 70, 80, 90% inhibition was tested as mono-therapy and in combination.
(§7) The Combination Index (CI) provides a measure of the interaction: A CI value of less than 1 indicates synergy, a CI value of 1 indicates an additive effect, and a CI value of greater than 1 indicates antagonism.

[2] = system: Sarcoma Cells (MesSa); test: Clonogenic assay (continuous co-incubation), sarcoma cells MesSa; type: cell-based, human
Experimental: as §1, §2, §3, §4, §5, §6, §7

[3] = system: Osteocarcinoma Cells (Saos-2); test: Clonogenic assay (continuous co-incubation), osteocarcinoma cells Saos-2; type: cell-based
Experimental: as §1, §2, §3, §4, §5, §6, §7

[4] = system: MesSa human sarcoma xenograft; type: in vivo
Experimental: The xenograft model used the MesSa cell line (ATCC: CRL-1976 human sarcoma cells) (in vitro cell passage number 67 from frozen stock (number 65) on day 5). Tumour cells (1×10^7) (trypsinated) (100 μL in 100 μL matrigel) were injected subcutaneously (s.c.) into the right flank of each mouse, with one node per mouse. The time from cell dilution to the end of injection was 24 minutes. Each mouse was anaesthetised with Hypnorm/Dormicum subcutaneously (s.c.) or isofluran (by inhalation) when the tumour cells were injected.
Four groups, each of 12 mice, were treated with vehicle, belinostat only, trabectedin only, or both belinostat and trabectedin, for three weeks, as summarised in the following table. On days that belinostat was administered, it was administered twice, with a 3 hour interval. On days that both belinostat and trabectedin were administered, the trabectedin was administered between the two belinostat administrations.
Mice were enrolled in treatment groups following confirmation of xenograft take. Both tumour diameter and body weight were measured on days: 0, 3, 7, 10, 14, 17, and 21. Animals were sacrificed (by cervical dislocation) on day 21. Tumour weight was measured on day 21 (following sacrifice).
“T/C%” denotes tumour weight following treatment as a percent of control, using Mann-Whitney statistical analysis. The results (median tumour volume) are also illustrated in FIG. 4.
“T/C%” denotes tumour weight following treatment as a percent of control, using Mann-Whitney statistical analysis. The results (median tumour weight) are also illustrated in FIG. 5.

[5] = system: soft-tissue sarcoma; conditions: patients with soft-tissue sarcoma, pivotal clinical trial; cited from earlier work
[6] = physiological pH; cited from earlier work
[7] = day 0, trabectedin 0.1 mg/kg i.v. once, days 0, 3, 7, 10
[8] = day 4, trabectedin 0.1 mg/kg i.v. once, days 0, 3, 7, 10
[9] = day 7, trabectedin 0.1 mg/kg i.v. once, days 0, 3, 7, 10
[10] = day 10, trabectedin 0.1 mg/kg i.v. once, days 0, 3, 7, 10
[11] = day 14, trabectedin 0.1 mg/kg i.v. once, days 0, 3, 7, 10
[12] = day 17, trabectedin 0.1 mg/kg i.v. once, days 0, 3, 7, 10
[13] = day 0, belinostat 40 mg/kg i.p. twice daily, days 0-4, 7-11, 14-18
[14] = day 4, belinostat 40 mg/kg i.p. twice daily, days 0-4, 7-11, 14-18
[15] = day 7, belinostat 40 mg/kg i.p. twice daily, days 0-4, 7-11, 14-18
[16] = day 10, belinostat 40 mg/kg i.p. twice daily, days 0-4, 7-11, 14-18
[17] = day 14, belinostat 40 mg/kg i.p. twice daily, days 0-4, 7-11, 14-18
[18] = day 17, belinostat 40 mg/kg i.p. twice daily, days 0-4, 7-11, 14-18

For `COc1cc2c(cc1O)CCN[C@]21CS[C@@H]2c3c(OC(C)=O)c(C)c4c(c3[C@H](COC1=O)N1[C@@H]2[C@H]2c3c(cc(C)c(OC)c3O)C[C@@H]([C@@H]1O)N2C)OCO4` (relative stereo) [Trabectedin, spiro[6,16-(epithiopropanoxymethano)-7,13-imino-12H-1,3-dioxolo[7,8]isoquino[3,2-b][3]benzazocine-20,1′(2′H)-isoquinolin]-19-one, 5-(acetyloxy)-3′,4′,6,6a,7,13,14,16-octahydro-6′,8,14-trihydroxy-7′,9-dimethoxy-4,10,23-trimethyl-, [6R-(6α,6aβ,7β,13β,14β,16α,20R*)]], the “Trabectedin Alone (% survival)” value ([1]; trabectedin 0.66 nM) was 75.33%, the “Trabectedin Alone (% survival)” value ([1]; trabectedin 0.73 nM) was 62.12% and the “Trabectedin Alone (% survival)” value ([1]; trabectedin 0.80 nM) was 49.62%. For the same compound, the “Trabectedin Alone (% survival)” value ([1]; trabectedin 0.84 nM) was 44.20%, the “Trabectedin Alone (% survival)” value ([1]; trabectedin 0.88 nM) was 44.06% and the “Trabectedin Alone (% survival)” value ([1]; trabectedin 0.92 nM) was 36.20%. The “Trabectedin Alone (% survival)” value ([1]; trabectedin 0.96 nM) was 28.69%, the “Trabectedin Alone (% survival)” value ([2]; trabectedin 0.20 nM) was 86.17% and the “Trabectedin Alone (% survival)” value ([2]; trabectedin 0.46 nM) was 87.51%. The “Trabectedin Alone (% survival)” value ([2]; trabectedin 0.64 nM) was 81.84%, the “Trabectedin Alone (% survival)” value ([2]; trabectedin 0.75 nM) was 67.10% and the “Trabectedin Alone (% survival)” value ([2]; trabectedin 0.86 nM) was 42.38%. For the same compound, the “Trabectedin Alone (% survival)” value ([2]; trabectedin 0.97 nM) was 33.98%, the “Trabectedin Alone (% survival)” value ([2]; trabectedin 1.1 nM) was 26.55% and the “Trabectedin Alone (% survival)” value ([3]; trabectedin 0.005 nM) was 79.99%. For the same compound, the “Trabectedin Alone (% survival)” value ([3]; trabectedin 0.010 nM) was 77.74%, the “Trabectedin Alone (% survival)” value ([3]; trabectedin 0.09 nM) was 74.94% and the “Trabectedin Alone (% survival)” value ([3]; trabectedin 0.13 nM) was 69.14%. For the same compound, the “Trabectedin Alone (% survival)” value ([3]; trabectedin 0.17 nM) was 60.61%, the “Trabectedin Alone (% survival)” value ([3]; trabectedin 0.21 nM) was 65.08% and the “Trabectedin Alone (% survival)” value ([3]; trabectedin 0.26 nM) was 49.99%. For the same compound, the “Median Tumour Volume, Trabectedin Only” value [4, 7] was 87 mm^3, the “T/C % (tumour volume), Trabectedin Only” value [4, 7] was 100% and the “Median Tumour Volume, Trabectedin Only” value [4, 8] was 87 mm^3. The “T/C % (tumour volume), Trabectedin Only” value [4, 8] was 100%, the “Median Tumour Volume, Trabectedin Only” value [4, 9] was 57 mm^3 and the “T/C % (tumour volume), Trabectedin Only” value [4, 9] was 50%. The “Median Tumour Volume, Trabectedin Only” value [4, 10] was 65 mm^3, the “T/C % (tumour volume), Trabectedin Only” value [4, 10] was 29% and the “Median Tumour Volume, Trabectedin Only” value [4, 11] was 76 mm^3. For the same compound, the “T/C % (tumour volume), Trabectedin Only” value [4, 11] was 31%, the “Median Tumour Volume, Trabectedin Only” value [4, 12] was 134 mm^3 and the “T/C % (tumour volume), Trabectedin Only” value [4, 12] was 30%. For the same compound, the “Median Tumour Volume, Trabectedin Only” value ([4]; day 21, trabectedin 0.1 mg/kg i.v. once, days 0, 3, 7, 10) was 167 mm^3, the “T/C % (tumour volume), Trabectedin Only” value ([4]; day 21, trabectedin 0.1 mg/kg i.v. once, days 0, 3, 7, 10, p=0.01) was 25% and the “T/C % (tumour weight), Trabectedin Alone” value ([4]; day 21, trabectedin 0.1 mg/kg i.v. once, days 0, 3, 7, 10, p=0.027) was 30%. For the same compound, the “reduction in growth (tumour volume)” value ([4]; day 21, trabectedin 0.1 mg/kg, once daily, i.v., days 0, 3, 7, 10, p=0.01) was 75%, the “reduction in growth (tumour weight)” value ([4]; day 21, trabectedin 0.1 mg/kg, once daily, i.v., days 0, 3, 7, 10, p=0.027) was 70% and the “tumour growth delay (in words)” value ([4]; trabectedin 0.1 mg/kg, once daily, i.v., days 0, 3, 7, 10 of a 3 week cycle) was “significant tumour growth delay”. The “time-to-tumour-progression (TTP)” value [5] was 3.9 months.

In the case of `O=C(/C=C/c1cccc(S(=O)(=O)Nc2ccccc2)c1)NO` [Belinostat, (E)-N-hydroxy-3-(3-phenylsulfamoyl-phenyl)-acrylamide], the “Belinostat Alone (% survival)” value ([1]; belinostat 0.04 μM) is reported as 97.74%, the “Belinostat Alone (% survival)” value ([1]; belinostat 0.36 μM) is reported as 82.64% and the “Belinostat Alone (% survival)” value ([1]; belinostat 0.47 μM) is reported as 65.30%. For the same compound, the “Belinostat Alone (% survival)” value ([1]; belinostat 0.56 μM) was 31.60%, the “Belinostat Alone (% survival)” value ([1]; belinostat 0.63 μM) was 15.82% and the “Belinostat Alone (% survival)” value ([1]; belinostat 0.68 μM) was 7.19%. The “Belinostat Alone (% survival)” value ([1]; belinostat 0.73 μM) was 2.42%, the “Belinostat Alone (% survival)” value ([2]; belinostat 0.27 μM) was 88.48% and the “Belinostat Alone (% survival)” value ([2]; belinostat 0.37 μM) was 68.82%. For the same compound, the “Belinostat Alone (% survival)” value ([2]; belinostat 0.48 μM) was 57.06%, the “Belinostat Alone (% survival)” value ([2]; belinostat 0.57 μM) was 42.92% and the “Belinostat Alone (% survival)” value ([2]; belinostat 0.66 μM) was 37.33%. The “Belinostat Alone (% survival)” value ([2]; belinostat 0.80 μM) was 17.90%, the “Belinostat Alone (% survival)” value ([2]; belinostat 1.0 μM) was 2.75% and the “Belinostat Alone (% survival)” value ([3]; belinostat 0.065 μM) was 86.96%. For the same compound, the “Belinostat Alone (% survival)” value ([3]; belinostat 0.10 μM) was 66.47%, the “Belinostat Alone (% survival)” value ([3]; belinostat 0.115 μM) was 69.29% and the “Belinostat Alone (% survival)” value ([3]; belinostat 0.13 μM) was 74.52%. For the same compound, the “Belinostat Alone (% survival)” value ([3]; belinostat 0.145 μM) was 45.50%, the “Belinostat Alone (% survival)” value ([3]; belinostat 0.19 μM) was 38.34% and the “Belinostat Alone (% survival)” value ([3]; belinostat 0.225 μM) was 30.59%. The “tumour growth delay (in words)” value ([4]; belinostat 40 mg/kg, twice daily, i.p., 5 days per week for 3 weeks) was “some but not significant tumour growth delay”, the “Median Tumour Volume, Belinostat Only” value [4, 13] was 65 mm^3 and the “T/C % (tumour volume), Belinostat Only” value [4, 13] was 75%. The “Median Tumour Volume, Belinostat Only” value [4, 14] was 71 mm^3, the “T/C % (tumour volume), Belinostat Only” value [4, 14] was 81% and the “Median Tumour Volume, Belinostat Only” value [4, 15] was 76 mm^3. The “T/C % (tumour volume), Belinostat Only” value [4, 15] was 67%, the “Median Tumour Volume, Belinostat Only” value [4, 16] was 87 mm^3 and the “T/C % (tumour volume), Belinostat Only” value [4, 16] was 39%. The “Median Tumour Volume, Belinostat Only” value [4, 17] was 144 mm^3, the “T/C % (tumour volume), Belinostat Only” value [4, 17] was 59% and the “Median Tumour Volume, Belinostat Only” value [4, 18] was 295 mm^3. For the same compound, the “T/C % (tumour volume), Belinostat Only” value [4, 18] was 66%, the “Median Tumour Volume, Belinostat Only” value ([4]; day 21, belinostat 40 mg/kg i.p. twice daily, days 0-4, 7-11, 14-18) was 449 mm^3 and the “T/C % (tumour volume), Belinostat Only” value ([4]; day 21, belinostat 40 mg/kg i.p. twice daily, days 0-4, 7-11, 14-18, p=0.10) was 67%. The “T/C % (tumour weight), Belinostat Alone” value ([4]; day 21, belinostat 40 mg/kg i.p. twice daily, days 0-4, 7-11, 14-18, p=0.180) was 77%, the “reduction in growth (tumour volume)” value ([4]; day 21, belinostat 40 mg/kg, twice daily, i.p., 5 days per week for 3 weeks, p=0.10) was 33% and the “reduction in growth (tumour weight)” value ([4]; day 21, belinostat 40 mg/kg, twice daily, i.p., 5 days per week for 3 weeks, p=0.180) was 23%. For the same compound, the solubility in water [6] was “sparingly soluble”.
